Reference: patent US12156922B2, “Copper-containing complex and uses thereof” (Bar-Ilan University, priority 2017, dated 2024)
One block for each compound: values may come before it.

Key:
[1] = UV-visible spectrophotometry of Tyr-peptide binding to Cu(II), absorption at 276 nm
Description: In order to compare affinity of peptides to Cu(II)-ligand-peptide complexes, UV-visible spectrophotometry was used to assess the degree of incorporation of Cys1-Tyr (SEQ ID NO: 51) and Met1-Tyr (SEQ ID NO: 50) peptides into Cu(II)-containing complexes, at various concentrations of Cu(II), IDA and peptide. The spectrophotometry focused on changes in Tyr residue absorption at about 276 nm. […]
In addition, 1 mM of peptide (16.6 μl) with 1 mM CuCl2 (12.5 μl) in ultrapure water (258.4 μl) was titrated with various concentrations (ranging from 0.25 to 1 mM or 0.25 to 1.25 mM) of IDA.

Ctr1 = molecular target: T1, Ctr1 (Homo sapiens, UniProt O15431, DEL121-121); assay: EPR of Cu(II) coordination after exposure of complex to purified Ctr1; type: binding; settings: 120 K, 0.5 mM
T1 construct: intein (cleaved yes); made in house; host or cells: Escherichia coli BL21 (DE3)
T1 sequence (O15431 with tags, fused parts or gaps DEL121-121): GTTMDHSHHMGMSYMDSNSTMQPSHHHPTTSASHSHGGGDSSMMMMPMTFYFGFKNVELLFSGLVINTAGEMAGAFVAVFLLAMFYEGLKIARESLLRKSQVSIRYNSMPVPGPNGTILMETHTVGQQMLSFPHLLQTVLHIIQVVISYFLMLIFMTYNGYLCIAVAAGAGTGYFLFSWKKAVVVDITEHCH
Text: Human Ctr1 (hCtr1) was obtained by expression and purification of a protein (SEQ ID NO: 43), using a pYTB12-hCTR1 plasmid, in which the full length hCTR1 sequence was cloned into the pYTB12 plasmid. This construct encodes for a fusion protein composed of hCTR1, intein, and a chitin-binding domain. The plasmid was transformed into the Escherichia coli strain BL21 (DE3).
In order to assess the behavior of a Cu(II)-ligand-peptide complex under physiological conditions, the coordination of Cu(II) was investigated by EPR spectroscopy following exposure of a Cu(II)-IDA-Met1 complex (prepared as described in Example 2) to the copper transporter Ctr1 (in a purified state), which plays a central role in the cellular copper cycle. For comparison, the behavior of Cu(II)-IDA (without a peptide) was also investigated under such conditions. EPR spectra were interpreted by comparison to simulated spectra prepared using the EasySpin™ computational package.

DA3 breast cancer cells = assay: Cu(I) levels in cells by bicinchoninic acid (BCA) absorption at 562 nm; type: cell-based
Description: The interaction between cells and Cu(II)-ligand-peptide complexes under various conditions was investigated by contacting DA3 breast cancer cells with a Cu(II)-IDA-Cys1 complex (prepared as described in Example 2) or with CuCl2 as a control. The concentration of reduced copper (Cu(I)) was then determined by complexation with bicinchoninic acid (BCA) and evaluating the concentration of BCA-Cu(I) by measuring absorption at a wavelength of 562 nm.

Compound: KSMAACAM (Cys1 peptide sequence)
- affinity to Cu(II), comparison of peptides ([1]; from Cys1-Tyr and Met1-Tyr titrations): considerably stronger affinity to Cu(II) than does Met1

- coordination of Cu(II) in the presence of Ctr1 (Ctr1): becomes coordinated to the Ctr1
Compound: O=C([O-])CNCC(=O)[O-].[Cu+2] [Cu(II)-IDA]

Compound: [Cl][Cu][Cl] [free Cu(II) ions, CuCl2]
- time for which Cu(I) concentration in cells is maintained (DA3 breast cancer cells; 1.5 mM): depleted from the cell within several hours
- Cu(I) ions in cells, hypoxic vs normoxic conditions (DA3 breast cancer cells; 1.5 mM, 2, 6 or 24 hours after exposure): more Cu(I) ions are observed in cells under hypoxic conditions than under normoxic conditions
- entry of copper into cells in the presence of Ag(I) ions, a Ctr1 inhibitor (DA3 breast cancer cells; 3 mM Ag(I) ions, 1.5 mM copper species): not blocked

Compound: MYGMKGMSY [Met1-Tyr]
- IDA-dependent change in absorption at 276 nm ([1]; 1 mM peptide, 1 mM CuCl2, titrated with IDA): larger IDA-dependent change in absorption than did Cys1-Tyr
